Among the data in PubChem BioAssay (NCI) are GI50 and TGI values, retold here.

Test systems include 786-0 renal; CCRF-CEM leukemia; MALME-3M melanoma; MOLT-4 leukemia; OVCAR-4 ovarian; OVCAR-5 ovarian; OVCAR-8 ovarian; RXF 393 renal; SK-MEL-28 melanoma; SNB-75 CNS.
What all share (test): NCI tumour cell line growth inhibition, 48 h

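Grown in 96-well plates, cells were treated for 48 hours with each compound at five concentrations. Insufficient inhibition: endpoint recorded as highest concentration tested. The concentration for 50% growth inhibition is given as GI50. The concentration for full growth arrest is given as TGI.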

As to `O=C(Oc1ccc([N+](=O)[O-])cc1)N1CCC(C(O)(c2ccc3c(c2)OCO3)c2ccc3c(c2)OCO3)CC1`, the GI50 in the assay with 786-0 renal, in the assay on CCRF-CEM leukemia, with MALME-3M melanoma, in the assay on MOLT-4 leukemia, in the assay on OVCAR-4 ovarian and with OVCAR-5 ovarian was greater than 100 µM in each case. For the same compound, the GI50 in the assay on OVCAR-8 ovarian, with RXF 393 renal, in the assay with SK-MEL-28 melanoma and in the assay with SNB-75 CNS was greater than 100 µM throughout. The TGI in the assay with 786-0 renal, with CCRF-CEM leukemia, in the assay with MALME-3M melanoma, in the assay on MOLT-4 leukemia, with OVCAR-4 ovarian and in the assay on OVCAR-5 ovarian was greater than 100 µM each time. Also, the TGI in the assay with OVCAR-8 ovarian, in the assay on RXF 393 renal, in the assay with SK-MEL-28 melanoma and with SNB-75 CNS was greater than 100 µM throughout.
Turning to `O=C1C(Nc2ccccn2)=C(I)C(=O)c2ncccc21`, the GI50 was 1.9 µM in the assay with 786-0 renal; 0.552 µM in the assay with CCRF-CEM leukemia; 1.27 µM with MALME-3M melanoma; 0.702 µM in the assay on MOLT-4 leukemia; 1.07 µM in the assay with OVCAR-4 ovarian; 1.71 µM in the assay with OVCAR-5 ovarian. The GI50 with OVCAR-8 ovarian is 1.29 µM; in the assay with RXF 393 renal it was 1.25 µM; in the assay on SK-MEL-28 melanoma, 1.68 µM; in the assay on SNB-75 CNS it was 1.01 µM. In addition, the TGI stood at 4.68 µM in the assay with 786-0 renal; 5.19 µM in the assay on CCRF-CEM leukemia; 2.54 µM with MALME-3M melanoma; 4.66 µM in the assay on MOLT-4 leukemia; 2.27 µM in the assay on OVCAR-4 ovarian; 3.25 µM in the assay with OVCAR-5 ovarian. Further, the TGI was 5.87 µM in the assay with OVCAR-8 ovarian, 2.75 µM in the assay on RXF 393 renal, 3.18 µM with SK-MEL-28 melanoma and 2.23 µM in the assay with SNB-75 CNS.
On to `C=CCSc1n[nH]c(-c2cccs2)n1`, for which the GI50 with 786-0 renal, in the assay on CCRF-CEM leukemia, with MALME-3M melanoma, with MOLT-4 leukemia, in the assay on OVCAR-4 ovarian and in the assay with OVCAR-5 ovarian was greater than 100 µM in each case. Besides, the GI50 in the assay on OVCAR-8 ovarian, in the assay on RXF 393 renal, in the assay with SK-MEL-28 melanoma and with SNB-75 CNS was greater than 100 µM in each case. The TGI in the assay on 786-0 renal, in the assay with CCRF-CEM leukemia, in the assay with MALME-3M melanoma, with MOLT-4 leukemia, with OVCAR-4 ovarian and in the assay with OVCAR-5 ovarian was greater than 100 µM each time. Further, the TGI with OVCAR-8 ovarian, in the assay on RXF 393 renal, with SK-MEL-28 melanoma and in the assay on SNB-75 CNS was greater than 100 µM in each case.
For the compound `CN(C)CCCC1(c2ccc(F)cc2)OCc2cc(-c3ccc4cc[nH]c4c3)ccc21` (stereo not given), the GI50 in the assay on 786-0 renal is 1.78 µM; with CCRF-CEM leukemia, 2.65 µM; with MALME-3M melanoma, 1.71 µM; with MOLT-4 leukemia, 2.04 µM; with OVCAR-4 ovarian, 2.16 µM; with OVCAR-5 ovarian it was 1.95 µM. Moreover, the GI50 was 3.32 µM with OVCAR-8 ovarian, 2.48 µM with RXF 393 renal, 1.8 µM in the assay with SK-MEL-28 melanoma and 1.35 µM in the assay with SNB-75 CNS. For the same compound, the TGI in the assay with 786-0 renal amounted to 3.41 µM; with CCRF-CEM leukemia it was 7.12 µM; in the assay with MALME-3M melanoma it was 3.32 µM; with MOLT-4 leukemia, 4.34 µM; with OVCAR-4 ovarian it was 4.72 µM; with OVCAR-5 ovarian, 4.3 µM. The TGI with OVCAR-8 ovarian amounted to 13.8 µM; with RXF 393 renal, 7.56 µM; in the assay with SK-MEL-28 melanoma, 3.36 µM; with SNB-75 CNS it was 3.54 µM.
As to `Cc1cc(NC(=O)CCc2ccc(N3C(N)=NC(N)=NC3(C)C)cc2)ccc1S(=O)(=O)F`, the GI50 with 786-0 renal is 0.291 µM; in the assay on CCRF-CEM leukemia, 0.243 µM; in the assay with MALME-3M melanoma, greater than 89.4 µM; in the assay with MOLT-4 leukemia, 1.27 µM; in the assay on OVCAR-4 ovarian, 12.3 µM; in the assay with OVCAR-5 ovarian, 0.468 µM. In addition, the GI50 with OVCAR-8 ovarian is 0.6 µM; with RXF 393 renal, 1.35 µM; in the assay on SK-MEL-28 melanoma, greater than 32.6 µM; in the assay on SNB-75 CNS, 0.517 µM. Further, the TGI in the assay with 786-0 renal, with CCRF-CEM leukemia, with MALME-3M melanoma, in the assay with MOLT-4 leukemia, with OVCAR-4 ovarian and with OVCAR-5 ovarian was greater than 100 µM throughout. The TGI was greater than 100 µM with OVCAR-8 ovarian, greater than 100 µM in the assay with RXF 393 renal, greater than 100 µM in the assay with SK-MEL-28 melanoma and 80.1 µM with SNB-75 CNS.
Take `CC1=COC2=C(C)C(=O)C(=O)c3c(C)ccc1c32`: the TGI in the assay on 786-0 renal was 19.6 µM; in the assay on CCRF-CEM leukemia, greater than 76.1 µM; in the assay on MALME-3M melanoma, 16 µM; in the assay on MOLT-4 leukemia it was 12 µM; in the assay with OVCAR-4 ovarian it was 13.5 µM; in the assay with OVCAR-5 ovarian it was 34.8 µM. In addition, the TGI in the assay with OVCAR-8 ovarian was 12.4 µM; with RXF 393 renal, 21.5 µM; in the assay on SK-MEL-28 melanoma, greater than 100 µM; with SNB-75 CNS, 42.6 µM.
For `O=[N+]([O-])c1ccc(N(CCO)CCO)c2c1no[n+]2[O-]`, the GI50 is 1.8 µM with 786-0 renal; 0.704 µM with CCRF-CEM leukemia; 1.57 µM in the assay on MALME-3M melanoma; 1.27 µM with MOLT-4 leukemia; 1.65 µM in the assay on OVCAR-4 ovarian; 2.78 µM in the assay on OVCAR-5 ovarian. In addition, the GI50 is 1.37 µM with OVCAR-8 ovarian, 1.32 µM in the assay on RXF 393 renal, 1.98 µM in the assay with SK-MEL-28 melanoma and 0.961 µM in the assay on SNB-75 CNS. For the same compound, the TGI in the assay on 786-0 renal came to 4.21 µM; with CCRF-CEM leukemia, 4.71 µM; in the assay with MALME-3M melanoma, 4.64 µM; in the assay with MOLT-4 leukemia it was 5.18 µM; in the assay on OVCAR-4 ovarian, 6.62 µM; in the assay with OVCAR-5 ovarian, 10.3 µM. The TGI in the assay on OVCAR-8 ovarian came out at 7.02 µM; in the assay with RXF 393 renal, 4.84 µM; in the assay on SK-MEL-28 melanoma, 5.66 µM; in the assay with SNB-75 CNS it was 5.47 µM.
Consider `COc1ccc(OC)c(-c2nc3sccn3c2/C=C2/C(=O)Nc3ccccc32)c1`, for which the GI50 was 0.273 µM in the assay with 786-0 renal; 0.273 µM with CCRF-CEM leukemia; 0.979 µM in the assay with MALME-3M melanoma; 0.0472 µM with MOLT-4 leukemia; 3.01 µM with OVCAR-4 ovarian; 0.437 µM with OVCAR-5 ovarian. Besides, the GI50 was 0.945 µM with OVCAR-8 ovarian, 0.553 µM in the assay with RXF 393 renal, 1.96 µM with SK-MEL-28 melanoma and 2.95 µM with SNB-75 CNS. Also, the TGI in the assay on 786-0 renal was 18.6 µM; in the assay with CCRF-CEM leukemia, 5.37 µM; in the assay on MALME-3M melanoma it was 21.2 µM; in the assay on MOLT-4 leukemia, 18.4 µM; in the assay with OVCAR-4 ovarian it was greater than 38.7 µM; in the assay with OVCAR-5 ovarian, 12.8 µM. Also, the TGI is greater than 46.5 µM in the assay with OVCAR-8 ovarian, 17.9 µM in the assay with RXF 393 renal, 25.2 µM in the assay on SK-MEL-28 melanoma and greater than 100 µM in the assay with SNB-75 CNS.
